Measured values: patent publication US10070646B2, “Tetrazolinone compound and application thereof” (SUMITOMO CHEMICAL COMPANY, LIMITED, priority 2014, dated 2018)

Assays:
Format in all cases: in vivo
[1] = system: cucumber powdery mildew fungus (Sphaerotheca fuliginea, a QoI-resistant strain); experiment: Test Example 4: cucumber powdery mildew (QoI-resistant strain) foliar spray test; details: 500 ppm sprayed on cucumber (SAGAMI HANJIRO), cytochrome b position 143 glycine to alanine, assessed after 8 days
Excerpt: Each of plastic pots was filled with soil and cucumber (cultivar: SAGAMI HANJIRO) was sowed and grown in a greenhouse for 12 days. Then, each water dilution prepared by adjusting so as to contain a predetermined concentration (500 ppm) of the present compound 1 was sprayed over stems and leaves of the cucumber so that it sufficiently adhered to the surface of the leaves of the cucumber. After spraying, the plant was air-dried and then inoculated by sprinkling with spores of cucumber powdery mildew fungus (Sphaerotheca fuliginea, a QoI-resistant strain in which, among the genes encoding cytochrome b, the amino acid residue at position 143 of cytochrome b is mutated from glycine to alanine). After the inoculation, the plant was cultivated in a greenhouse at 24° C. in the daytime and 20° C. at night for 8 days, and then the area of lesion was investigated. As a result, the area of lesion on the plant treated with the present compound was 30% or less of that on an untreated plant.

[2] = system: barley net blotch fungus (Pyrenophora teres); experiment: Test Example 1: barley net blotch preventive foliar spray test; details: 500 ppm sprayed on barley (MIKAMO GOLDEN) stems and leaves; spores inoculated after 2 days; 3 days high humidity then 7 days in greenhouse
Excerpt: (§1) Each of plastic pots was filled with soil and barley (cultivar: MIKAMO GOLDEN) was sowed and grown in a greenhouse for 7 days. Then, each water dilution prepared by adjusting so as to contain a predetermined concentration (500 ppm) of the present compound 1 was sprayed over stems and leaves of the barley so that it sufficiently adhered to the surface of the leaves of the barley. After spraying, the plant was air-dried. After 2 days, an aqueous suspension containing spores of barley net blotch fungus (Pyrenophora teres) was sprayed to inoculate the spores. After completion of the inoculation, the plant was placed for 3 days in a greenhouse at 23° C. in the daytime and 20° C. at night under high humidity condition and cultivated in a greenhouse for 7 days, and then the area of lesion was investigated. As a result, the area of lesion on the plant treated with of the present compound was 30% or less of that on an untreated plant.

[3] = system: cucumber downy mildew fungus (Pseudoperonospora cubensis); experiment: Test Example 8: cucumber downy mildew preventive foliar spray test; details: 200 ppm sprayed on cucumber (SAGAMI HANJIRO); zoospores inoculated after 1 day; one day high humidity then 6 days in greenhouse
Excerpt: (§2) Each of plastic pots was filled with soil and cucumber (cultivar: SAGAMI HANJIRO) was sowed and grown in a greenhouse for 19 days. Then, each water dilution prepared by adjusting so as to contain a predetermined concentration (200 ppm) of the present compound 1 was sprayed over stems and leaves of the cucumber so that it sufficiently adhered to the surface of the leaves of the cucumber. After spraying, the plant was air-dried and then, after 1 day, an aqueous suspension containing zoospores of cucumber downy mildew fungus (Pseudoperonospora cubensis) was sprayed to inoculate the zoospores. After the inoculation, the plant was placed stand at 23° C. for one day under high humidity condition, and then cultivated in a greenhouse at 24° C. in the daytime and 20° C. at night for 6 days, and then the area of lesion was investigated. As a result, the area of lesion on the plant treated with the present compound was 30% or less of that on an untreated plant.

[4] = system: wheat leaf blotch fungus (Septoria tritici); experiment: Test Example 3: wheat leaf blotch preventive foliar spray test; details: 500 ppm sprayed on wheat (APOGEE); spores inoculated after 4 days; 3 days at 18° C. high humidity then 14 to 18 days under illumination
Excerpt: Each of plastic pots was filled with soil and wheat (cultivar: APOGEE) was sowed and grown in a greenhouse for 10 days. Then, each water dilution prepared by adjusting so as to contain a predetermined concentration (500 ppm) of the present compound 1 was sprayed over stems and leaves of the wheat so that it sufficiently adhered to the surface of the leaves of the wheat. After spraying, the plant was air-dried. After 4 days, an aqueous suspension containing spores of wheat leaf blotch fungus (Septoria tritici) was sprayed over the wheat to inoculate the spores. After completion of the inoculation, the plant was placed at 18° C. under high humidity condition for 3 days and then placed under illumination for 14 to 18 days, and then the area of lesion was investigated. As a result, the area of lesion on the plant treated with the present compound was 30% or less of that on an untreated plant.

[5] = system: wheat rust fungus (Puccinia recondita); experiment: Test Example 5: wheat rust preventive foliar spray test; details: 200 ppm sprayed on wheat (SHIROGANE); spores inoculated after 5 days; one day dark high humidity then 8 days under illumination
Method: Each of plastic pots was filled with soil and wheat (cultivar: SHIROGANE) was sowed and grown in a greenhouse for 9 days. Then, each water dilution prepared by adjusting so as to contain a predetermined concentration (200 ppm) of the present compound 1 was sprayed over stems and leaves of the wheat so that it sufficiently adhered to the surface of the leaves of the wheat. After spraying, the plant was air-dried and cultivated at 20° C. for 5 days under illumination, and then inoculated by sprinkling with spores of wheat rust fungus (Puccinia recondita). After the inoculation, the plant was placed at 23° C. for one day under dark and high humidity condition, and cultivated under illumination at 20° C. for 8 days, and then the area of lesion was investigated. As a result, the area of lesion on the plant treated with the present compound was 30% or less of that on an untreated plant.

[6] = system: kidney bean stem rot fungus (Sclerotinia sclerotiorum); experiment: Test Example 2: kidney bean stem rot foliar spray test; details: 500 ppm sprayed on kidney bean (NAGAUZURA SAITOU); hyphae-containing PDA medium placed on leaves after air-drying; assessed four days after inoculation
Excerpt: Each of plastic pots was filled with soil and kidney bean (cultivar: NAGAUZURA SAITOU) was sowed and grown in a greenhouse for 8 days. Then, each water dilution prepared by adjusting so as to contain a predetermined concentration (500 ppm) of the present compound 1 was sprayed over stems and leaves of the kidney bean so that it sufficiently adhered to the surface of the leaves of the kidney bean. After spraying, the plant was air-dried and a PDA medium containing hyphae of the kidney bean stem rot fungus (Sclerotinia sclerotiorum) was placed on the leaves of the kidney bean. After the inoculation, all kidney beans were placed under high humidity condition only at night. Four days after the inoculation, the area of lesion was investigated. As a result, the area of lesion on the plant treated with the present compound was 30% or less of that on an untreated plant.

[7] = system: cucumber anthracnose fungus (Colletotrichum lagenarium); experiment: Test Example 7: cucumber anthracnose preventive foliar spray test; details: 50 ppm sprayed on cucumber (SAGAMI HANJIRO); spores inoculated after 1 day; one day high humidity then 6 days in greenhouse
Excerpt: as §2, with “(50” for “(200”, “spores” for “zoospores”, “anthracnose” for “downy mildew”, “(Colletotrichum lagenarium)” for “(Pseudoperonospora cubensis)”, “spores.” for “zoospores.”, “placed” for “placed stand”

[8] = system: barley scald fungus (Rhynchosporium secalis); experiment: Test Example 6: barley scald preventive foliar spray test; details: 200 ppm sprayed on barley (MIKAMO GOLDEN); spores inoculated after 2 days; 3 days high humidity then 7 days in greenhouse
Excerpt: as §1, with “(200” for “(500”, “scald” for “net blotch”, “(Rhynchosporium secalis)” for “(Pyrenophora teres)”

Measured: area of lesion on the treated plant relative to that on an untreated plant

Cc1cccc(-n2nnn(C)c2=O)c1CSc1ccn(-c2ccc(Cl)cc2)n1 [present compound 1, 1-(2-{[1-(4-chlorophenyl)-1H-pyrazol-3-yl]thiomethyl}-3-methy1phenyl)-4-methyl-1,4-dihydrotetrazol-5-one]
≤ 30%: all assays above
